The values below are quoted from earlier work in patent US20240382549A1, “USE OF MULBERRY EXTRACT FOR IMPROVING SLEEP QUALITY AND/OR SUBSEQUENT BEHAVIOURAL OUTCOMES” (SOCIETE DES PRODUITS NESTLE S.A., priority 2021, published 2024).

For this series the following is noted: earlier study; 12.5 mg DNJ in capsule, co-ingestion with maltodextrin.

Turning to `OC[C@H]1NC[C@H](O)[C@@H](O)[C@@H]1O` [DNJ, 1-deoxynojirimycin], the “reduction of PPGR” value is 14%.
